Laboratory results taken from patent US5081234A, “4'-demethylepipodophyllotoxin glycosides” (Bristol-Myers Squibb Co., priority 1990, dated 1992).
Values after ≈ are worked out from the molar mass of the structure shown.

How the values were obtained:
[1] = test system: Murine melanoma B16-F10 cells; assay: In vitro cytotoxicity vs B16-F10 (72 h, neutral red staining); assay type: cell-based; settings: Mus musculus, neutral red at 540 nm
Experimental: Murine melanoma B16-F10 cells were grown and maintained at 37° C. under a humidified atmosphere in a 5% CO2 incubator in Eagle's MEM medium (Nissui) containing kanamycin (60 μg/ml), and supplemented with heat inactivated fetal calf serum (10%) and non-essential amino acids (0.6%). For in vitro cytotoxicity experiments, exponentially growing B16-F10 cells were harvested, counted, and suspended in the culture medium at the concentration of 2.0×10^4 cells/ml. Twenty-four hours after planting cell suspension (180 μl ) into wells of a 96-well microtiter plate, test materials (20 μl) were added to the wells and the plates were incubated for 72 hours. The cytotoxic activity against B16-F10 cells was colorimetrically determined at 540 nm after staining viable cells with neutral red solution.

[2] = test system: murine P388 lymphocytic leukemia; assay: In vivo antitumor activity against murine P388 lymphocytic leukemia; parameters: species or system mice (female CDF1); settings: median survival time treated/control; P388 i.p. day 0, i.p. once on day 1 (Q1D×1), observed 45 days; maximum T/C, at dose (mg/kg): D 30, E 120, F 60, G 120, H 30, I 10, K 10, Etoposide 120; >125% considered significant
Experimental: Representative compounds of the present invention were evaluated against murine P388 lymphocytic leukemia. Female CDF1 mice were inoculated with 1.0×10^6 of leukemia cells intraperitoneally (day 0), and test materials were intraperitoneally administered to mice once on day 1 (Q1D×1). […] The median survival time (MST) of each group was recorded, and antitumor activity was expressed as T/C % values calculated by the following equation:
T/C%=(MST of treated.div.MST of control)×100

Compound | IC50 [1] [µg/mL] | Antitumor Activity vs P388, Max % T/C [2] [%]
COc1cc([C@@H]2c3cc4c(cc3[C@@H](O[C@H]3OC[C@@H](O)[C@H](O)[C@H]3O)[C@H]3COC(=O)[C@H]23)OCO4)cc(OC)c1O [Compound I, 4'-Demethyl-4-O-(α-D-xylopyranosyl)epipodophyllotoxin] | 2.3 (≈ 4.32 µM) | 140
COc1cc([C@@H]2c3cc4c(cc3[C@@H](O[C@@H]3OC[C@@H](O)[C@H](O)[C@H]3O)[C@H]3COC(=O)[C@H]23)OCO4)cc(OC)c1O [Compound H, 4'-Demethyl-4-O-(β-D-xylopyranosyl)epipodophyllotoxin] | 0.53 (≈ 0.995 µM) | 150
COc1cc([C@@H]2c3cc4c(cc3[C@@H](O[C@@H]3OC[C@H]5OC(C)O[C@H]5[C@H]3O)[C@H]3COC(=O)[C@H]23)OCO4)cc(OC)c1O (stereo partly drawn) [Compound G, 4'-Demethyl-4-O-(3,4-O-ethylidene-β-D-ribopyranosyl)epipodophyllotoxin] | 2.5 (≈ 4.48 µM) | 152
COc1cc([C@@H]2c3cc4c(cc3[C@@H](O[C@@H]3OC[C@@H](OC(C)=O)[C@@H](OC(C)=O)[C@H]3OC(C)=O)[C@H]3COC(=O)[C@H]23)OCO4)cc(OC)c1O [Compound E, 4'-Demethyl-4-O-(2,3,4-tri-O-acetyl-β-D-ribopyranosyl)epipodophyllotoxin] | 4 (≈ 6.07 µM) | 171
COc1cc([C@@H]2c3cc4c(cc3[C@@H](O[C@@H]3O[C@@H]5CO[C@@H](C)O[C@H]5[C@H](O)[C@H]3O)[C@H]3COC(=O)[C@H]23)OCO4)cc(OC)c1O [Etoposide, reference compound] | 0.21 (≈ 0.357 µM) | –
COc1cc([C@@H]2c3cc4c(cc3[C@@H](O[C@@H]3O[C@H](CO)[C@@H](O)[C@H]3O)[C@H]3COC(=O)[C@H]23)OCO4)cc(OC)c1O [Compound D, 4'-Demethyl-4-O-(β-D-ribofuranosyl)epipodophyllotoxin] | 18 (≈ 33.8 µM) | 130
COc1cc([C@@H]2c3cc4c(cc3[C@@H](O[C@@H]3OC[C@@H](O)[C@@H](O)[C@H]3O)[C@H]3COC(=O)[C@H]23)OCO4)cc(OC)c1O [Compound F, 4'-Demethyl-4-O-(β-D-ribopyranosyl)epipodophyllotoxin] | 1 (≈ 1.88 µM) | 181
COc1cc([C@@H]2c3cc4c(cc3[C@@H](O[C@H]3OC[C@@H](O)[C@@H](O)[C@@H]3O)[C@H]3COC(=O)[C@H]23)OCO4)cc(OC)c1O [Compound K, 4'-Demethyl-4-O-(α-D-arabinopyranosyl)epipodophyllotoxin] | 28 (≈ 52.6 µM) | 125
